Laboratory results reported in publication PMC7687180 (Chembiochem, 2020).
Like-named read-outs stand apart in the source and are kept apart here.

Legend:
[1] = target: T1, SdeC (Legionella pneumophila, UniProt Q5ZTK8); assay: biochemical
T1 construct: gene lpg2153

[2] = target: T1, SdeC; assay: biochemical; remark: listed apart in the source

NC(=O)c1ccc[n+]([C@@H]2S[C@H](COP(=O)(O)OP(=O)([O-])OC[C@H]3O[C@@H](n4cnc5c(N)ncnc54)[C@H](O)[C@@H]3O)[C@@H](O)[C@H]2O)c1 [compound 2, S-NAD^+]
IC50 [1]: 27.9 µM

NC(=O)c1ccc[n+]([C@@H]2O[C@H](COP(=O)([O-])OP(=O)(O)OC[C@H]3O[C@@H](n4cnc5c(N)ncnc54)[C@H](O)[C@@H]3O)[C@@H](O)[C@H]2O)c1 [NAD^+]
IC50 [2]: 27.7 ± 1.9 µM

NC(=O)c1cccc([C@@H]2O[C@H](COP(=O)(O)OP(=O)(O)OC[C@H]3O[C@@H](n4cnc5c(N)ncnc54)[C@H](O)[C@@H]3O)[C@@H](O)[C@H]2O)c1 [compound 3, BAD]
IC50 [1]: 38.9 µM
